Assay results: patent US10500261B2 (priority 2014, dated 2019)
Entries after “also recorded” stand apart in the source; their conditions may differ.

What was measured:
[1] = system: HS23/36 CPS conjugate antisera; type: binding, rabbit
[2] = system: HS4 CPS conjugate antisera; type: binding, rabbit
[3] = system: HS3 CPS conjugate antisera; type: binding, mouse
[4] = system: HS1 CPS conjugate antisera; type: binding, mouse

In the case of `COc1ccc(O[C@H]2O[C@H](COP(N)(=O)OC)[C@H](O)[C@H](O)[C@H]2O)cc1` (stereo partly drawn) [MeOPN→6-α-D-Galp-(1→OMP, 4-Methoxyphenyl 6-O-methyl-phosphoramidate-α-D-galactopyranoside], the “recognition by HS23/36 CPS-CRM197 conjugate antiserum” value [1] is reported as “recognized; also recorded: strongly recognized; also recorded: detected”, the “recognition by HS4 CPS-CRM197 conjugate antiserum” value [2] is reported as “elicited a response equivalent to anti-HS23/36 CRM197 conjugate; also recorded: strongly recognized” and the “recognition by HS3 CPS-CRM197 conjugate antiserum” value [3] is reported as “did not react”. For the same compound, the “recognition by HS1 CPS-CRM197 conjugate antiserum” value [4] was “reacted to MeOPN-6-Gal, although to a somewhat lesser extent; also recorded: weaker intensity”.
For `COc1ccc(O[C@H]2O[C@H](CO)[C@H](O)[C@H](O)[C@H]2O)cc1` [α-D-Gal-(1-OMP, 4-methoxyphenyl-α-D-galactopyranoside, reference compound], the “recognition by HS23/36 CPS-CRM197 conjugate antiserum” value [1] was “No reaction was observed”.
